Test results: patent US8673578B2, “Methods of identifying antagonists of the hTAS2R46 bitter taste receptor” (Deutsches Institut für Ernahrungsforschung Potsdam-Rehbrücke, priority 2009, dated 2014)

What was measured:
other hTAS2 receptors = assay: calcium imaging (FLIPR), effect on agonist-dependent hTAS2R activation; type: cell-based, human; conditions: 100 μM test substance; cognate agonists of Table 2
Text: (§1) Human TAS2R cDNAs were cloned into pcDNA5/FRT (Invitrogen, San Diego, Calif.). For adequate plasma membrane targeting, receptor cDNA was fused to the aminoterminal sequence of the rat somatostatin type 3 receptor at the aminoterminus of the recombinant protein (Bufe, B., T. Hofmann, et al. (2002) Nat Genet. 32(3): 397-401). For immunological detection, the Herpes simplex Glycoprotein D epitope was supplemented at the carboxyterminus of the recombinant protein (Bufe et al., supra). Receptor constructs were transiently transfected into HEK293T cells stably expressing the chimeric G protein subunit Gα16gust44 (Ueda, T., S. Ugawa, et al. (2003) J Neurosci 23(19): 7376-80) using Lipofectamine 2000 (Invitrogen, San Diego, Calif.) in 96-well plates.
Calcium Imaging experiments were performed 24 h after transfection using a Fluorometric Imaging Plate Reader (FLIPR, Molecular Devices, Munich, Germany) as previously described (Bufe et al., supra). Taste active compounds were ordered from Sigma (Sigma-Aldrich, Taufkirchen, Germany). Absinthin, 3β hydroxy dihydro costunolide and 3β hydroxy pelenolide were kindly provided by Giovanni Appendino (Novara, Italy). […] Fluorescence signals after application of test substances were corrected for and normalized to background fluorescence (ΔF/F═(F−F0)/F0), and baseline noise was subtracted. […]

hTAS2R47 = biological target: T1, hTAS2R47 (Homo sapiens, UniProt P59541); assay: as above; type: cell-based; conditions: 100 μM test substance; agonist brucine 100 μM (EC90); agonist alone = 100%
T1 construct: expressed in transfected cells; host or cells: HEK293T cells stably expressing chimeric Gα16gust44, transient transfection
T1 sequence (P59541 1-319): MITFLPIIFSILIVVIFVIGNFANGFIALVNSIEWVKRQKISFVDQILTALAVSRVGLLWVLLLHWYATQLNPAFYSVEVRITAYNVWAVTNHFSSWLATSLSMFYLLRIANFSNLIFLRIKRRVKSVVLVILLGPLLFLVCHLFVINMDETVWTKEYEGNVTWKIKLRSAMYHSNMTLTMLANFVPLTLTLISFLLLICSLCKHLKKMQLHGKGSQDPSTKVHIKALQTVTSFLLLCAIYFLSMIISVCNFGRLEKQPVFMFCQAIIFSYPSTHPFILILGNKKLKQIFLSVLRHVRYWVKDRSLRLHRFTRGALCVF
Text: as §1
(§2) Calcium Imaging experiments were performed 24 h after transfection using a Fluorometric Imaging Plate Reader (FLIPR, Molecular Devices, Munich, Germany) as previously described (Bufe et al., supra). Taste active compounds were ordered from Sigma (Sigma-Aldrich, Taufkirchen, Germany). Absinthin, 3β hydroxy dihydro costunolide and 3β hydroxy pelenolide were kindly provided by Giovanni Appendino (Novara, Italy). Test substances were directly dissolved in C1 buffer (130 mM NaCl, 10 mM Na-Hepes, 10 mM Glucose, 5 mM KCl, 2 mM CaCl2, pH 7.4) or in DMSO, respectively. DMSO stocks were further diluted in C1 buffer not exceeding a final DMSO concentration of 1% on the cells. For the investigation of antagonistic effects, test substances were premixed. Agonists were applied at concentrations corresponding to EC90, except where indicated otherwise (Table 2). Data were collected from 3 independent experiments performed in quadruplicates and processed with SigmaPlot (SPSS, Chicago, Ill.). Fluorescence signals after application of test substances were corrected for and normalized to background fluorescence (ΔF/F═(F−F0)/F0), and baseline noise was subtracted. Calculation of dose-response curves was done by nonlinear regression using the function f(y)=((a−d)/(1+(x/EC50)^nH)+d).
(§3) To test 3β hydroxy dihydro costunolide and 3β hydroxy pelenolide for antagonistic or enhancing effects on hTAS2R activation, transfected cells were stimulated with cognate agonist bitter substances at EC90 concentrations (Table 2) without 3β hydroxy dihydro costunolide and 3β hydroxy pelenolide. The cellular responses after application of the agonist alone were set to 100%, responses obtained after coapplication of agonists and 100 μM 3β hydroxy dihydro costunolide or 100 μM 3β hydroxy pelenolide are shown relative to this value (FIG. 4).

hTAS2R43 = biological target: T2, hTAS2R43 (Homo sapiens, UniProt P59537, H212R/W35S); assay: as above; type: cell-based; conditions: 100 μM test substance; agonist aristolochic acids 0.3 μM (EC90); agonist alone = 100%
T2 construct: expressed in transfected cells; host or cells: HEK293T cells stably expressing chimeric Gα16gust44, transient transfection
T2 sequence (P59537 1-309 W35S/H212R): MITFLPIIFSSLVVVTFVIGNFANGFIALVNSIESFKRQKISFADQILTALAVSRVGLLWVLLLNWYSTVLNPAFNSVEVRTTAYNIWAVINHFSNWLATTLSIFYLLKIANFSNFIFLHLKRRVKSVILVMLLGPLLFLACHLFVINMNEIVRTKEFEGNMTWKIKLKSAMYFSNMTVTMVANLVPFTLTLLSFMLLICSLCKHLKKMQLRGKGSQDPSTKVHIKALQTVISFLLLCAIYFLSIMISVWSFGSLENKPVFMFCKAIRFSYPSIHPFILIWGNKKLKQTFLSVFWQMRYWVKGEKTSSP
Text: as §1, §2, §3

hTAS2R40 = biological target: T3, hTAS2R40 (Homo sapiens, UniProt P59535); assay: as above; type: cell-based; conditions: 100 μM test substance; agonist cohumulone 0.3 μM (EC90); agonist alone = 100%
T3 construct: expressed in transfected cells; host or cells: HEK293T cells stably expressing chimeric Gα16gust44, transient transfection
T3 sequence (P59535 whole entry): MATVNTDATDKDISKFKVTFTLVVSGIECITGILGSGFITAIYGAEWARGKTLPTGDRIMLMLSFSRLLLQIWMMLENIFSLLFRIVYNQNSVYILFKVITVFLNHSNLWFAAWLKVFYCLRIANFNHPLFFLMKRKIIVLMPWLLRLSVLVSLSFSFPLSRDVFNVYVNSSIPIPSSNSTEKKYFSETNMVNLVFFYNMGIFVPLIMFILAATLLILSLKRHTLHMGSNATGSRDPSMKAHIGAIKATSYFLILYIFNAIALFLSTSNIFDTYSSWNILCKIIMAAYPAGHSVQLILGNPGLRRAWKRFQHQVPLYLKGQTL
Text: as §1, §2, §3

hTAS2R14 = biological target: T4, hTAS2R14 (Homo sapiens, UniProt Q9NYV8); assay: calcium imaging (FLIPR), activation of hTAS2R-transfected HEK293T-Gα16gust44 cells; type: cell-based; conditions: 100 μM test substance, bath application
T4 construct: expressed in transfected cells; host or cells: HEK293T cells stably expressing chimeric Gα16gust44, transient transfection
T4 sequence (Q9NYV8 1-317): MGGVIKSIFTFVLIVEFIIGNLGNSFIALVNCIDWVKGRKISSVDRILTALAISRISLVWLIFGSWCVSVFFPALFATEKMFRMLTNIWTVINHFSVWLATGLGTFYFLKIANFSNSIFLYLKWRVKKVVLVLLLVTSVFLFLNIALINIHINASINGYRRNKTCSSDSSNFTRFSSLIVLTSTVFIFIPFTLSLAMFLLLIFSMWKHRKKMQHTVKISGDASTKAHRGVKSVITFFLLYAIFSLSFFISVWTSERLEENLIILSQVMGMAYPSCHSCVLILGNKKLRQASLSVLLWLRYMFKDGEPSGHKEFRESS
Text: as §1, §2
(§4) In a first series of experiments we tested the two sesquiterpene lactones 3β hydroxy dihydro costunolide (formula (I) in FIG. 1) and 3β hydroxy pelenolide (formula (II) in FIG. 1) for their ability to activate hTAS2 receptor-expressing HEK293T cells.
(§5) Signal amplitudes were comparatively small (FIG. 2C).

hTAS2R10 = biological target: T5, hTAS2R10 (Homo sapiens, UniProt Q9NYW0); assay: as above; type: cell-based; conditions: for calcium response of hTAS2R10-transfected cells: 100 μM test substance, bath application
T5 construct: expressed in transfected cells; host or cells: HEK293T cells stably expressing chimeric Gα16gust44, transient transfection
T5 sequence (Q9NYW0 1-307): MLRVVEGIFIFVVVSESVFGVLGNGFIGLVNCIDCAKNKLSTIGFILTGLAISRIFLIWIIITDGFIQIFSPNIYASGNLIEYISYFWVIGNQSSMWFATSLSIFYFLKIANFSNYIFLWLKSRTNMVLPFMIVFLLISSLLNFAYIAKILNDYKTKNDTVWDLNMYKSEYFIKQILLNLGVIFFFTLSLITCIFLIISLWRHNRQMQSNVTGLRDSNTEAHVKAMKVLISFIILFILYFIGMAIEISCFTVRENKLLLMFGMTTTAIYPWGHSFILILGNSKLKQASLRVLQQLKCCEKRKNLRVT
Text: as §1, §2, §4, §5

| SMILES | agonist activation of cells expressing any of the other hTAS2Rs on coapplication (other hTAS2 receptors) | agonist-dependent response of hTAS2R47-expressing cells on coapplication (hTAS2R47) | agonist-dependent response of hTAS2R43-expressing cells on coapplication (hTAS2R43) | agonist-dependent response of hTAS2R40-expressing cells on coapplication (hTAS2R40) | calcium response of hTAS2R14-transfected cells (hTAS2R14) | calcium response of hTAS2R10-transfected cells (hTAS2R10) | EC50 (hTAS2R10; concentration-response, intracellular calcium) [µM] |
| --- | --- | --- | --- | --- | --- | --- | --- |
| C/C1=C\C[C@H](O)/C(C)=C/[C@H]2OC(=O)[C@@H](C)C2CC1 (stereo partly drawn) [3β hydroxy dihydro costunolide] | did not alter | complete block | only moderately reduced | only moderately reduced | responded | responded | 25.2 ± 3.6 |
| C/C1=C\C[C@H](O)[C@@H](C)C[C@H]2OC(=O)[C@@H](C)[C@@H]2CC1 [3β hydroxy pelenolide] | not affected | completely inhibited | completely inhibited | moderately attenuating effect | displayed calcium signals | displayed calcium signals |  |
